42 compounds from patent publication US20230218573A1, “INDOLE COMPOUNDS FOR THE TREATMENT OF NEURODEGENERATIVE DISEASES” (GALYAN BIO, INC., priority 2020, published 2023) can be followed below.

One may read the viability as a read-out of living cells in per cent, often relative to untreated cells.

For data set [1], the system named is STHdh 111/111 striatal cells. The data set is described as follows: Cell viability (CellTiter Glo) of heat shocked STHdh 111/111 striatal cells. The class given is cell-based, mouse. The note with it: STHdh 111/111, 10 µM, 48 hours treatment; for viability at 10 µM: Mus musculus, read-out: Cell Viability striatal cells 3h heat shocked. On the technique in general: ATP-based viability assays read luminescence as a measure of living cells.
Protocol: Cell culture - ST HDH Q111/111 (CH00095, Coriell Institute) striatal derived cell line were grown at 33° C. in DMEM (Sigma-Aldrich), supplemented with 10% fetal bovine serum (FBS), 1% Penicillin-Streptomycin (ThermoFisher Scientific), and 0.4 mg/ml G418 (Geneticin; Invitrogen). ST HDH Q111/111 are mouse striatal cells with polyQ length of 1111.
Pre-Treatment of striatal cell line - First the medium was removed and new DMEM (DMEM, high glucose, HEPES, no phenol red) medium, supplemented with 10% fetal bovine serum (FBS), 1% Penicillin-Streptomycin, containing 10 µM compound was added. The cells were incubated at 33° C. for 24 hours.
Heat shock - Cells were heat shocked for 3 hours at 41° C.
Treatment - Medium was removed and new DMEM (DMEM, high glucose, HEPES, no phenol red) medium, supplemented with 1% fetal bovine serum (FBS), 1% Penicillin-Streptomycin, containing 10 µM compound was added. The cells were incubated at 33° C. for 48 hours.
Cell Viability - Cell viability was measured according to manufacturer recommendations with CellTiter Glo (Promega). 96-well plates for used either for cell viability determination or cell staining.

For a further data set, the target named is mHTT (Mus musculus, UniProt P42859, DEL28-30/G47A/INS49LLPQPQPP/INS60VA/L56P/P40L). The data set is described as follows: Diffuse mHTT levels in heat shocked STHdh 111/111 striatal cells by immunocytochemistry. The note with it: for remaining activity at 10 µM: 48 h.
A further data set concerns STHdh 7/7 striatal cells. Kind of data set: Cell viability of heat shocked STHdh 7/7 striatal cells. The class given is cell-based, mouse. The settings on record: 48 hours treatment; for Cell Viability striatal cells 3h heat shocked: 10 µM; for viability at 10 µM: Mus musculus, read-out: Cell Viability striatal cells 3h heat shocked. The procedure: RESULTS - Table 7b summarizes the effect of the compounds on cell viability. STHdh 7/7 were heat shocked for 3 hours and treated for 48 hours with small molecule compounds. Table 2 lists the cell viability in striatal cells after 48 hours.
Effect of Compound 22 on Cell Viability of Wildtype Striatal Neurons - STHdh 7/7 cells are striatal cells that express wildtype huntingtin. These cells were cultured in the same conditions as described above for STHdh 111/111. The neurons were first heat shocked for 3 hours at 41° C. as described above. After 48 hours of treatment with the small molecule Compounds, cell viability was determined using the method described above. The “buffer” control is represents cells treated with a buffer only, without any compounds added. Some of the compounds show higher cell viability in comparison to control heat shocked STHdh 7/7 neurons with buffer and no treatment (FIG. 9).

[2] abbreviates: read-out: mHTT after treatment, 10 µM, 3 h heat shock, 48 hours treatment, in comparison to untreated STHdh 111/111.

Molecules are shown by their SMILES. Read-outs that look alike come from different tables or passages of the source.

mHTT, sequence (P42859 with tags, fused parts or gaps DEL28-30/P40L/G47A/INS49LLPQPQPP/L56P/INS60VA): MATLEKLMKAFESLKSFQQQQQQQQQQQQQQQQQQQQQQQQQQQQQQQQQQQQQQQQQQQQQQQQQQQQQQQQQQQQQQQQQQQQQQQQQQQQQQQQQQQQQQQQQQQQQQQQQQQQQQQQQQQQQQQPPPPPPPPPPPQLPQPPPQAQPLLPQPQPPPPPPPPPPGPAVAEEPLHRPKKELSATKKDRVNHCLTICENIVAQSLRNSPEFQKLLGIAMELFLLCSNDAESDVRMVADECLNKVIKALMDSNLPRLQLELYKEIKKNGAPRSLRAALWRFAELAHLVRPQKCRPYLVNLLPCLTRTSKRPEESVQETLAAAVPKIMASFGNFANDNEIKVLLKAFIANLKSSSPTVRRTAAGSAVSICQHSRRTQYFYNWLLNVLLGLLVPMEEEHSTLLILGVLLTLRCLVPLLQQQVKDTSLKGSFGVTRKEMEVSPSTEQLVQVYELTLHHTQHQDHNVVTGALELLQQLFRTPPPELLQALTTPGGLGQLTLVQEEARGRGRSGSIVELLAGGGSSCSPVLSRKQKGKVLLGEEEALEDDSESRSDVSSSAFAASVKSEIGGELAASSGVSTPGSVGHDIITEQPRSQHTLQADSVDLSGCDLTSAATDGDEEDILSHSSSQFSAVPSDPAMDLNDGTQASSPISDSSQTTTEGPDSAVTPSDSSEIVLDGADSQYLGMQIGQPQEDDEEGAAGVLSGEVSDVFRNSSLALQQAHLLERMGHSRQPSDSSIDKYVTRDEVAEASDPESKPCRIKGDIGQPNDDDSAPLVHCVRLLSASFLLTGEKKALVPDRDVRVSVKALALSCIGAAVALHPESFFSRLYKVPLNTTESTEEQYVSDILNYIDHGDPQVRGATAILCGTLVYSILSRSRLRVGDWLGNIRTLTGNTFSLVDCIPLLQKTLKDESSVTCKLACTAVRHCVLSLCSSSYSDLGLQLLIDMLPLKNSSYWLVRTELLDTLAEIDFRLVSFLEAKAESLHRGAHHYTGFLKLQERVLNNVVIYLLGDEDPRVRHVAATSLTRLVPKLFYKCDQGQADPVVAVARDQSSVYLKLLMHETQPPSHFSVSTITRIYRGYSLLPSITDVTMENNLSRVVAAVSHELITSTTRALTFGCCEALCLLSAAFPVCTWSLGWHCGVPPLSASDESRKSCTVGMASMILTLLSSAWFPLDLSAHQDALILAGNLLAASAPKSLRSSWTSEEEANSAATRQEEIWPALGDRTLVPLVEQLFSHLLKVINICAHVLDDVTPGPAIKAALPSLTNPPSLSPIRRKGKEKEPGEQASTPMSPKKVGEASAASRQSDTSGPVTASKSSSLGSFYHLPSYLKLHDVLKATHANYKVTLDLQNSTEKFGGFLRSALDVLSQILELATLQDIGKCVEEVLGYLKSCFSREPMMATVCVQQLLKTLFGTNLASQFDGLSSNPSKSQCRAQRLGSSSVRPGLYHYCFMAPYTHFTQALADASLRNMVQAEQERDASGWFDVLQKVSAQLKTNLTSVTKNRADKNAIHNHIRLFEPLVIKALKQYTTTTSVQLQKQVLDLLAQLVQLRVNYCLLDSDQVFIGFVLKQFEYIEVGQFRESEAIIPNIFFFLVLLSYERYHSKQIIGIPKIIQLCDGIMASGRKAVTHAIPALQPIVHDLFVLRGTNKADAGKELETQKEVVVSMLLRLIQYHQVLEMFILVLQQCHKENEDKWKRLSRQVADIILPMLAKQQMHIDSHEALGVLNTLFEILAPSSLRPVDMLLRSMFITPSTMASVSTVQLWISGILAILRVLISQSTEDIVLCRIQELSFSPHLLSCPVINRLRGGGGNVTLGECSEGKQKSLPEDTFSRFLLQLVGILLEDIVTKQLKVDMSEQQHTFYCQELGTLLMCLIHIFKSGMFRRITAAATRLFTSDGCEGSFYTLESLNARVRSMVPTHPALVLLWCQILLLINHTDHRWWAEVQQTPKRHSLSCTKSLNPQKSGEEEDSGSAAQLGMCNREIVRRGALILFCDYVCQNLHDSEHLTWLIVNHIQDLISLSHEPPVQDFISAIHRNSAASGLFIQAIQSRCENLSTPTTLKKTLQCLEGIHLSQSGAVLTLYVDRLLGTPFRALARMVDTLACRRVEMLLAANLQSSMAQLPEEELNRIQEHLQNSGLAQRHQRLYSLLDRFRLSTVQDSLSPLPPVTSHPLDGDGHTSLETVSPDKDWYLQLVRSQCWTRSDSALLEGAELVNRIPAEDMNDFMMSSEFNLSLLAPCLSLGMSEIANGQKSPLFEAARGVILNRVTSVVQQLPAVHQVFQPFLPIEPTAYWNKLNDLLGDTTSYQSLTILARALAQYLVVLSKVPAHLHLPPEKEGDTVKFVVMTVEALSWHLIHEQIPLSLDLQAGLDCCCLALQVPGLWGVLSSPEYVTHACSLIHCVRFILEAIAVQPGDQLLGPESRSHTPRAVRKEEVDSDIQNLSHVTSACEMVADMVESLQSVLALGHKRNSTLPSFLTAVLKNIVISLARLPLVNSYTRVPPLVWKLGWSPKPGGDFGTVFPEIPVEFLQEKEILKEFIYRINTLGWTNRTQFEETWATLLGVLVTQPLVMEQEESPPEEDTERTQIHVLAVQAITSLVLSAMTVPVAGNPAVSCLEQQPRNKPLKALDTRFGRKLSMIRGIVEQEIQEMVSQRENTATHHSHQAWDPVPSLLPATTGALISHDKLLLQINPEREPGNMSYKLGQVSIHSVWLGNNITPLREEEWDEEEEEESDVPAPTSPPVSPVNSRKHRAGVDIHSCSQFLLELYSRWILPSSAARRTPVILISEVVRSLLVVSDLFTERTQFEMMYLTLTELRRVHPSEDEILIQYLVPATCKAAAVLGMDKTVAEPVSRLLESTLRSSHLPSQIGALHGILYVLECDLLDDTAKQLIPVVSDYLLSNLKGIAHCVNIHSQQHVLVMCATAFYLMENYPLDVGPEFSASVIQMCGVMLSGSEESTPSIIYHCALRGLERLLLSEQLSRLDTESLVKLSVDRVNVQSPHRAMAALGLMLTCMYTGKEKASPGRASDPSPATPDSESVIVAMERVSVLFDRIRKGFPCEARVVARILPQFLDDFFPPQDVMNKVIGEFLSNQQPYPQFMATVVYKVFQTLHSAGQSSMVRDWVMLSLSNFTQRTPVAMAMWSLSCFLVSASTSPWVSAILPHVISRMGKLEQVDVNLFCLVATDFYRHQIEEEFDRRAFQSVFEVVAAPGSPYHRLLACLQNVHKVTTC

For `CCc1c(C)[nH]c2ccc(C(=O)NCCN3CCCCC3)cc12` [Compound 18], the viability at 10 µM in data set [1] amounted to 103%. Further, the remaining activity at 10 µM on mHTT (read-out: mHTT after treatment) turned out to be 44%. For the compound `Cc1c(C)n(C)c2ccc(C(=O)NCCN(C)C)cc12` [Compound 41, N-(2-(Dimethylamino)ethyl)-1,2,3-trimethyl-1H-indole-5-carboxamide], the viability at 10 µM in data set [1] is 75%. The same measure, in the same setting: the figure for `CN(C)CCNC(=O)c1ccc2[nH]c3c(c2c1)CCC3` [Compound 5] is 104%. `Cc1c(C)n(C)c2ccc(C(=O)NCCN(C(C)C)C(C)C)cc12.Cl` [Compound 59]: in the data set on STHdh 7/7 striatal cells, the “Cell Viability striatal cells 3h heat shocked” value was 153.6. For `Cc1c(C)n(C)c2ccc(C(=O)NCCN3CCC3)cc12` [Compound 44, N-(2-(Azetidin-1-yl)ethyl)-1,2,3-dimethyl-1H-indole-5-carboxamide], in data set [1], the viability at 10 µM turned out to be 75%. The remaining activity at 10 µM at mHTT (setting [2]) is 66%.

Regarding `Cc1[nH]c2ccc(C(=O)NCCN3CCC3)cc2c1C` [Compound 17, N-(2-(Azetidin-1-yl)ethyl)-2,3-dimethyl-1H-indole-5-carboxamide], the viability at 10 µM in data set [1] stood at 99%. The same measure, in the same setting: the figure for `Cc1c(C)n(C)c2ccc(C(=O)NCCN3CCN(C)C(C)C3)cc12` (stereo not shown) [Compound 25, N-(2-(3,4-Dimethylpiperazin-1-yl)ethyl)-1,2,3-trimethyl-1H-indole-5-carboxamide] is 109%. Still for that read-out and setting: the figure for `Cc1c(C)n(C)c2ccc(C(=O)NCCN3CCCCC3C)cc12` (stereo not shown) [Compound 48] is 108%; for `CCc1[nH]c2ccc(C(=O)NCCN3CCOCC3)cc2c1C` [Compound 30] it is 55%. On the same count and under the same terms, the same measure for `CN(C)CCNC(=O)c1ccc2[nH]c3c(c2c1)CCCC3` [Compound 3]: 86%. Turning to `CCN(CC)CCNC(=O)c1ccc2[nH]c3c(c2c1)CCCC3` [Compound 26], in data set [1], the viability at 10 µM turned out to be 82%. Also, the remaining activity at 10 µM on mHTT (read-out: mHTT after treatment) worked out at 49%.

Take `Cc1c(C)n(C)c2ccc(C(=O)NCCN3CCCCC3)cc12` [Compound 31, 1,2,3-Trimethyl-N-(2-(piperidin-1-yl)ethyl)-1H-indole-5-carboxamide]: in data set [1], the viability at 10 µM came out at 116%. Take `CCN(CC)CCNC(=O)c1ccc2[nH]c3c(c2c1)CCC3` [Compound 27]: in data set [1], the viability at 10 µM was found to be 66%. Further, the remaining activity at 10 µM at mHTT (read-out: mHTT after treatment) was 50%.

`CCc1c(C)[nH]c2ccc(C(=O)NCCN3CCOCC3)cc12` [Compound 32]: in data set [1], the viability at 10 µM was found to be 98%. For the compound `CCN(CC)CCNC(=O)c1ccc2[nH]ccc2c1` [Compound 52], the viability at 10 µM in data set [1] came out at 59%. For the same compound, the remaining activity at 10 µM at mHTT (read-out: mHTT after treatment) was 73%. Consider `CCc1c(C)[nH]c2ccc(C(=O)NCCN3CCC3)cc12` [Compound 33], for which, in data set [1], the viability at 10 µM worked out at 79%. For the compound `O=C(NCCN1CCOCC1)c1ccc2[nH]c3c(c2c1)CCCC3` [Compound 12], the viability at 10 µM in data set [1] turned out to be 106%. Moreover, the remaining activity at 10 µM on mHTT (read-out: mHTT after treatment) was 40%. Turning to `CCc1[nH]c2ccc(C(=O)NCCN3CCCCC3)cc2c1C` [Compound 23], the viability at 10 µM in data set [1] was found to be 84%.

With `O=C(NCCN1CCOCC1)c1ccc2[nH]c3c(c2c1)CCC3` [Compound 8], in data set [1], the viability at 10 µM was 115%. Turning to `CCc1c(C)[nH]c2ccc(C(=O)NCCN(C)C)cc12` [Compound 1], in data set [1], the viability at 10 µM was found to be 111%. Also, the remaining activity at 10 µM on mHTT (read-out: mHTT after treatment) is 30%. In the case of `Cc1c(C)n(C)c2ccc(C(=O)NCCN3CCCC3)cc12` [Compound 46, 1,2,3-Trimethyl-N-(2-(pyrrolidin-1-yl)ethyl)-1Hindole-5-carboxamide], in data set [1], the viability at 10 µM was determined as 96%. `O=C(NCCN1CCCC1)c1ccc2[nH]c3c(c2c1)CCCC3` [Compound 13]: in data set [1], the viability at 10 µM turned out to be 117%. Consider `CC(C)N(CCNC(=O)c1ccc2[nH]ccc2c1)C(C)C` [Compound 72], for which the viability at 10 µM in the data set with STHdh 7/7 striatal cells came out at 45.7%. Consider `CCc1[nH]c2ccc(C(=O)NCCN3CCC3)cc2c1C` [Compound 6], for which the viability at 10 µM in data set [1] turned out to be 113%. Besides, the remaining activity at 10 µM at mHTT (read-out: mHTT after treatment) amounted to 37%.

In the case of `CN1CCN(CCNC(=O)c2ccc3[nH]c4c(c3c2)CCC4)CC1` [Compound 10], in data set [1], the viability at 10 µM was 96%. At mHTT (read-out: mHTT after treatment), the remaining activity at 10 µM was 40%. For `Cc1c(C)n(C)c2ccc(C(=O)NCCN(C(C)C)C(C)C)cc12` [Compound 56], the “Cell Viability striatal cells 3h heat shocked” value came to 27 in data set [1] and 64.1 with STHdh 7/7 striatal cells. Further, the remaining activity at 10 µM at mHTT (read-out: mHTT after treatment) was 109%. For `O=C(NCCN1CCCC1)c1ccc2[nH]c3c(c2c1)CCC3` [Compound 14], in data set [1], the viability at 10 µM was determined as 113%. Besides, at mHTT (read-out: mHTT after treatment), the remaining activity at 10 µM stood at 41%. For `CN1CCN(CCNC(=O)c2ccc3[nH]c4c(c3c2)CCCC4)CC1` [Compound 36], the viability at 10 µM in data set [1] came out at 84%. `O=C(NCCN1CCCCC1)c1ccc2[nH]c3c(c2c1)CCCC3` [Compound 16]: the viability at 10 µM in data set [1] is 117%. In the case of `Cc1[nH]c2ccc(C(=O)NCCN3CCCCC3)cc2c1C` [Compound 47, 2,3-Dimethyl-N-(2-(piperidin-1-yl)ethyl)-1H-indole-5-carboxamide], the viability at 10 µM in data set [1] turned out to be 66%. Turning to `Cc1[nH]c2ccc(C(=O)NCCN3CCCC3)cc2c1C` [Compound 29, 2,3-Dimethyl-N-(2-(pyrrolidin-1-yl)ethyl)-1H-indole-5-carboxamide], the viability at 10 µM in data set [1] stood at 103%; in the data set with STHdh 7/7 striatal cells it was 131%. The matching figures for `CCN(CC)CCNC(=O)c1ccc2[nH]c(C)c(C)c2c1` [Compound 21, N-(2-(Diethylamino)ethyl)-2,3-dimethyl-1H-indole-5-carboxamide]: 87% and 82.6%. For the compound `CCc1[nH]c2ccc(C(=O)NCCN(C)C)cc2c1C` [Compound 37], the viability at 10 µM in data set [1] is 78%.

In the case of `Cc1c(C)n(C)c2ccc(C(=O)NCCN3CCN(C)CC3)cc12` [Compound 45], the viability at 10 µM in data set [1] is 81%. For the same compound, on mHTT (setting [2]), the remaining activity at 10 µM amounted to 66%. In the case of `CCc1c(C)[nH]c2ccc(C(=O)NCCN3CCN(C)CC3)cc12` [Compound 15], the viability at 10 µM in data set [1] is 104%. Take `CC(C)N(CCNC(=O)c1ccc2[nH]ccc2c1)C(C)C` [Compound 43]: the viability at 10 µM in data set [1] is 32%. Regarding `Cc1c(C)n(C)c2ccc(C(=O)NCCN(C(C)C)C(C)C)cc12.Cl` [Compound 39], the “Cell Viability striatal cells 3h heat shocked” value in data set [1] worked out at 117. In addition, the remaining activity at 10 µM on mHTT (setting [2]) was determined as 58%. Consider `Cc1c(C)n(C)c2ccc(C(=O)NCCN3CCOCC3)cc12` [Compound 40], for which the viability at 10 µM in data set [1] is 85%. Also, the mHTT after treatment at mHTT (10 µM, 3 h heat shock, 48 hours treatment, in comparison to untreated STHdh 111/111) was found to be 62%. `O=C(NCCN1CCC1)c1ccc2[nH]c3c(c2c1)CCC3` [Compound 42]: the viability at 10 µM in data set [1] stood at 88%. On the same count and under the same terms, the same measure for `CCc1[nH]c2ccc(C(=O)NCCN(CC)CC)cc2c1C` [Compound 38]: 81%. `CCc1[nH]c2ccc(C(=O)NCCN3CCCC3)cc2c1C` [Compound 11]: the viability at 10 µM in data set [1] came to 114%. On mHTT (read-out: mHTT after treatment), the remaining activity at 10 µM came out at 40%. As to `CCN(CC)CCNC(=O)c1ccc2c(c1)c(C)c(C)n2C` [Compound 19, N-(2-(Diethylamino)ethyl)-1,2,3-dimethyl-1H-indole-5-carboxamide], in data set [1], the viability at 10 µM stood at 76%. Further, at mHTT (setting [2]), the remaining activity at 10 µM is 45%.
